# Tests used:
# [1] = system: Trichophyton rubrum; assay: anti-fungal growth inhibition, T. rubrum; format: cell-based; conditions: Trichophyton rubrum, 168 h
# Protocol: Evaluation of anti-fungal activity. In a single well of the 96-well microplate, 10 μL of the testing compound is added into 190 μL of growth medium (Difco™ YM) containing an overnight culture of Trichophyton rubrum or Trichophyton mentagrophytes at a density of approximately 5×10^5 CFU. The testing compounds include dihydro-resveratrol and DR1 to DR11. Wells incubated with 10 μL 0.5% DMSO only (i.e. no testing compound) are served as the experimental control of fungal growth whilst those incubated with growth medium only (i.e. no fungi) are served as the negative control. […] The percentage of growth inhibition of T. mentagrophytes by the different concentrations of testing compounds is shown in Table 10 whilst the percentage of growth inhibition of T. rubrum is shown in Table 11. The images of T. mentagrophytes culture are captured post treatment of dihydro-resveratrol (100 μM) and DR8 (100 μM) when compared to the growth of experimental control and negative control (FIG. 30).
# [2] = system: HCT-116 human colorectal carcinoma xenograft tumor; assay: HCT-116 nude mouse xenograft model; format: in vivo, BALB/c nude mice; conditions: for Body weight: tumor-bearing nude mice, D-res 100 mg/kg i.p.
# From the text: All animal studies were approved and performed according to Animal Care and Use Guidelines of the Animal Ethics Committee at Hong Kong Baptist University. BALB/c nude mice, SPF class, male, 6-8 weeks old, were purchased from BioLASCO, Taiwan. Before the xenograft experiment, the mice were acclimatized to SPF class laboratory conditions for a week.
# HCT-116 cells in logarithmic growth phase were collected by trypsinization. After centrifugation and rinsing, cells were re-suspended in serum-free DMEM medium at 3×10^7 cells/mL. Nude mice were skin disinfected with 75% medical ethanol, subcutaneously injected with 100 μL of the HCT-116 cell suspension using a 25-G syringe to their left flank. The same procedure was repeated for the tumor cell injection to the right flank.
# Seven days after tumor cell injection, 24 mice with tumor volumes of 32 mm^3 to 178 mm^3 were randomly assigned into 3 groups; the average initial tumor volumes in each group of mice were 78.04±7.76 mm^3 (vehicle, 8 mice), 78.76±9.40 mm^3 (5-FU, 8 mice), 78.01±7.75 mm^3 (D-res, 8 mice) respectively.
# Vehicle solution: 2.5% Ethanol and Cremphor EL (1:1 v/v) dissolved in physiological saline.
# 5-FU solution: 5-FU powder was dissolved in 2.5% Ethanol and Cremphor EL to a concentration of 5 mg/mL.
# D-res solution: Dihydro-resveratrol powder was dissolved in 2.5% Ethanol and Cremphor EL solution to a concentration of 20 mg/mL.
# Vehicle group (n=8): 2.5% Ethanol and Cremphor EL solution was intraperitoneally injected every other day for 21 days.
# 5-FU group (n=8): 5-FU solution was given to mice at 25 mg/kg by intraperitoneal injection every other day for 21 days.
# D-res group (n=8): D-res solution was given to mice at 100 mg/kg by intraperitoneal injection every other day for 21 days. This is equivalent to a dosage of no less than 8.13 mg/kg of bodily weight in human.
# [3] = system: human colorectal carcinoma HCT-116 cell line; assay: MTT cell viability assay, HCT-116; format: cell-based; conditions: HCT-116 colorectal carcinoma, 24 h
# Protocol: (§1) The human colorectal carcinoma HCT-116 cell line, human pancreatic ductal adenocarcinoma PANC-1 cell line, human melanoma A375 cell line and human embryonic kidney HEK293 cell line were purchased from the American Type Culture Collection. Cells were cultured in high glucose DMEM growth medium supplemented with 10% fetal bovine serum, penicillin and streptomycin (100 U) in a humidified atmosphere of 5% CO2, 95% air at 37° C. Upon the addition of dihydro-resveratrol (D-res) to the HCT-116, PANC-1, A375 or HEK293 cells seeded at a density of 8000 cells per well in a 96-well plate format, the viability of the testing cells was determined 24 h post treatment using the (3-(4,5-dimethylthiazol-2-yl)-2,5-diphenyltetrazolium bromide) tetrazolium (MTT) reduction assay and expressed as growth inhibition of 50% (GI50, Table 6).
# [4] = system: Streptococcus sobrinus; assay: anti-bacterial growth inhibition, S. sobrinus; format: cell-based; conditions: Streptococcus sobrinus, 10 h
# Protocol: (§2) Evaluation of anti-bacterial activity. In a single well of the 96-well microplate, 10 μL of the testing compound is added into 190 μL of growth medium growth medium (BBL™ Brain Heart Infusion) containing an overnight culture of Streptococcus mutans or Streptococcus sobrinus at a density of approximately 5×10^5 CFU. The testing compounds include dihydro-resveratrol and DR1 to DR11. Wells incubated with 10 μL 0.5% DMSO only (i.e. no testing compound) are served as the experimental control of bacterial growth whilst those incubated with growth medium only (i.e. no bacteria) are served as the negative control. […] The percentage of growth inhibition of S. mutans by the different concentrations of testing compounds is shown in Table 12 whereas the percentage of growth inhibition of S. sobrinus is shown in Table 13. The images of S. mutans culture are captured post treatment of dihydro-resveratrol (100 μM) and DR8 (100 μM) when compared to the growth of experimental control and negative control (FIG. 31).
# [5] = system: human pancreatic ductal adenocarcinoma PANC-1 cell line; assay: MTT cell viability assay, PANC-1; format: cell-based; conditions: PANC-1 pancreatic ductal adenocarcinoma, 24 h
# Protocol: as §1
# [6] = system: Streptococcus mutans; assay: anti-bacterial growth inhibition, S. mutans; format: cell-based; conditions: Streptococcus mutans, 10 h
# Protocol: as §2
# [7] = system: human melanoma A375 cell line; assay: MTT cell viability assay, A375; format: cell-based; conditions: A-375, 24 h
# Protocol: as §1
# [8] = read-out: Inhibition rate (25 μM)
# [9] = read-out: Inhibition rate (50 μM)
# [10] = read-out: Inhibition rate (100 μM)
# [11] = 21-day administration, 100 mg/kg i.p.
smiles,measurement,setting,value
"Oc1ccc(CCc2cc(O)cc(O)c2)cc1 [Dihydro-resveratrol, trans-3,5,4′-trihydroxybibenzyl]",inhibition at 25 µM,[1]; [8],2.75%
same,inhibition at 50 µM,[1]; [9],6.84%
same,inhibition at 100 µM,[1]; [10],22.5%
same,effect on body weight of the nude mice,[2]; [11],did not lead to a notable reduction in body weight
same,"growth of xenograft tumor (size, volume, weight) compared to 5-FU",[2]; [11],more sufficiently restrained
same,Tumor Volume (mm^3),"[2]; Day 1 (initial), i.p. every other day, 5-FU 25 mg/kg, D-res 100 mg/kg",78.01 ± 7.75 mm^3
same,Body weight,"[2]; Day 1, 5-FU 25 mg/kg",20.69 ± 0.55 g
same,Tumor Volume (mm^3),"[2]; Day 4, i.p. every other day, 5-FU 25 mg/kg, D-res 100 mg/kg",137.54 ± 14.69 mm^3
same,Body weight,"[2]; Day 4, 5-FU 25 mg/kg",20.76 ± 0.65 g
same,Tumor Volume (mm^3),"[2]; Day 7, i.p. every other day, 5-FU 25 mg/kg, D-res 100 mg/kg",167.58 ± 22.65 mm^3
same,Body weight,"[2]; Day 7, 5-FU 25 mg/kg",20.33 ± 0.9 g
same,Tumor Volume (mm^3),"[2]; Day 10, i.p. every other day, 5-FU 25 mg/kg, D-res 100 mg/kg",273.28 ± 41.5 mm^3
same,Body weight,"[2]; Day 10, 5-FU 25 mg/kg",20.57 ± 0.66 g
same,Tumor Volume (mm^3),"[2]; Day 13, i.p. every other day, 5-FU 25 mg/kg, D-res 100 mg/kg",355.48 ± 78.57 mm^3
same,Body weight,"[2]; Day 13, 5-FU 25 mg/kg",20.53 ± 0.82 g
same,Tumor Volume (mm^3),"[2]; Day 16, i.p. every other day, 5-FU 25 mg/kg, D-res 100 mg/kg",409.35 ± 74.3 mm^3
same,Body weight,"[2]; Day 16, 5-FU 25 mg/kg",20.31 ± 0.88 g
same,Tumor Volume (mm^3),"[2]; Day 19, i.p. every other day, 5-FU 25 mg/kg, D-res 100 mg/kg",585.98 ± 110.96 mm^3
same,Body weight,"[2]; Day 19, 5-FU 25 mg/kg",20.51 ± 0.87 g
same,Tumor Volume (mm^3),"[2]; Day 21, i.p. every other day, 5-FU 25 mg/kg, D-res 100 mg/kg",559.76 ± 100.63 mm^3
same,Body weight,"[2]; Day 21, 5-FU 25 mg/kg",18.79 ± 0.59 g
same,Tumor Volume (mm^3),"[2]; Day 22, i.p. every other day, 5-FU 25 mg/kg, D-res 100 mg/kg",586.92 ± 88.51 mm^3
same,Body weight,"[2]; Day 22, 5-FU 25 mg/kg",20.63 ± 0.99 g
same,Tumor weight,"[2]; treated for 21 days, i.p. every other day, 5-FU 25 mg/kg, D-res 100 mg/kg",0.60 ± 0.11 g
same,GI50,[3],102 ± 5.21 µM
same,inhibition at 25 µM,[4]; [8],10.7%
same,inhibition at 50 µM,[4]; [9],8.18%
same,inhibition at 100 µM,[4]; [10],1.49%
same,GI50,[5],116 ± 3.09 µM
same,inhibition at 25 µM,[6]; [8],6.32%
same,inhibition at 50 µM,[6]; [9],2.34%
same,inhibition at 100 µM,[6]; [10],2.09%
same,GI50,[7],107 ± 3.37 µM
